{
  "source": "patent US20120315654A1",
  "about": "“COMPOSITIONS AND METHODS FOR DETECTING CARDIOTOXICITY” (DUKE UNIVERSITY, priority 2011, published 2012)",
  "target": "T1, Cr transporter (CrT) (Rattus norvegicus, UniProt P28570)",
  "T1 construct": "measuring ^14C—Cr uptake in primary RNCMs; endogenous in cells; host or cells: primary rat neonatal cardiomyocytes (RNCM)",
  "T1 sequence (P28570 1-635)": "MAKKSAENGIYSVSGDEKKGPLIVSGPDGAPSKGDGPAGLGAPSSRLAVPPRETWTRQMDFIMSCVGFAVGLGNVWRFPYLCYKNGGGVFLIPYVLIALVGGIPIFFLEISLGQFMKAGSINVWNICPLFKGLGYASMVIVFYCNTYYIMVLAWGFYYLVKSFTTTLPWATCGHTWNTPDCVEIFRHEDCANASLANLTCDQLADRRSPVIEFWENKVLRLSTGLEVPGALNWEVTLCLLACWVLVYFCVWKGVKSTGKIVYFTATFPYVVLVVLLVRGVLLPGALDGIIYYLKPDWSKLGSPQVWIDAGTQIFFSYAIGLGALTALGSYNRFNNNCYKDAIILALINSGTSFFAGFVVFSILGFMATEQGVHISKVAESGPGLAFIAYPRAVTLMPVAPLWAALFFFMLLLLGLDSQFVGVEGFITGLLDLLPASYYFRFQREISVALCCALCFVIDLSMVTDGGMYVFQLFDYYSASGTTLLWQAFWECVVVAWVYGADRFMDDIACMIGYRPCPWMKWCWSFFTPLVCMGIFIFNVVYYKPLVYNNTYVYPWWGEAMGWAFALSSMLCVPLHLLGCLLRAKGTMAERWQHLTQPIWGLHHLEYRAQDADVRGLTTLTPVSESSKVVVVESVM",
  "assay": "14C-Cr transport in rat neonatal cardiomyocytes (RNCM) after DOX incubation",
  "format": "cell-based",
  "settings": "100 nmol/L DOX",
  "protocol": "Cells were plated on tissue culture dishes pre-coated with gelatin/fibronectin and allowed to grow in M199 media (INVITROGEN, Carlsbad, Calif.) containing 2% serum before experimentation. All animals were treated according to protocols approved by Duke University's Institutional Animal Care and Use Committee. HL-1 cells (passages 50 to 75), were plated onto fibronectin/gelatin-coated plates and cultured in CLAYCOMB media (SIGMA, St. Louis, Mo.) supplemented with 10% fetal bovine serum, 100 units/ml penicillin, 100 μg/ml streptomycin, 0.1 mM norepinephrine, and 2 mmol/L L-glutamine, as described previously (White S. M., et al., Am J Physiol Heart Circ Physiol 286: H823-829, 2004). The cultures were maintained in a humidified atmosphere of 5% CO2 at 37° C.\nCr transport assays were performed after growth in control media for 0, 4, 12, 24 or 48 hrs.\nCells used for Cr transport assays were cultured in 24-well plates coated with fibronectin and gelatin. […]\nFor assays that measured Cr transport kinetics, the final Cr content in the uptake buffer ranged from 5 to 305 μmol/L. Uptake was terminated by aspiration of the radiolabeled solution, followed by 3 washes with ice-cold choline buffer. […] Cr transport was normalized to the protein concentration measured using the bicinchoninic acid (BCA) protein assay (PIERCE BIOTECHNOLOGY, Rockford, Ill.). […]",
  "data": [
    {"smiles": "COc1cccc2c1C(=O)c1c(O)c3c(c(O)c1C2=O)C[C@@](O)(C(=O)CO)C[C@@H]3O[C@H]1C[C@H](N)[C@H](O)[C@H](C)O1", "note": "[DOX, Doxorubicin]", "values": [
      {"measurement": "Decrease in Cr uptake", "setting": "32 hrs before the 36 hrs point (FIG. 1A)", "value": 37, "unit": "%"},
      {"measurement": "Cr transport (14C-Cr uptake)", "setting": "within 2-4 hrs of exposure, vs control media", "value": "decreased significantly"}
    ]}
  ]
}
